Results published in patent publication US9913830B2, “Materials and methods for modulating immune responses” (UNIVERSITY OF FLORIDA RESEARCH FOUNDATION, INCORPORATED, priority 2011, dated 2018).

Key:
naïve human CD4+ T cells = experiment: FOXP3 induction in naïve CD4+ T cells, flow cytometry; type: cell-based
Experimental: Freshly isolated naïve (CD4+ CD25− CD127hi CD45RO−) T cells are cultured and treated with PDE3b and PDE4 inhibitors (middle panel) or rapamycin (positive control) (right panel), or are left untreated (left panel). CD25 and FOXP3 expression is measured by flow cytometry after 14 days of expansion.
Treatment of Tregs with small molecules that maintain high cAMP levels in T cells can be used to induce a regulatory phenotype. Small molecules that maintain high cAMP levels in T cells include agents that inhibit PDEs and agents that activate AC.

NOD mice = experiment: Onset of diabetes in NOD mice, blood glucose monitoring; type: in vivo; conditions: 8-week old NOD mice, 65 mg/kg i.p., three times a week for five weeks, monotherapy
Experimental: Briefly, 8-week old NOD mice are injected (i.p.) with various doses of cilostamide (low: 0.65 mg/kg, medium: 6.5 mg/kg, high: 65 mg/kg), or vehicle only. Cilostamide is administered three times a week for five weeks. The onset of diabetes in treated mice is monitored by blood glucose measurements. Diabetes is diagnosed if the blood glucose readings are greater than 240 mg/dl for two days.
The increase in level of FoxP3+ cells at an early stage of the autoimmune attack can be used to prevent or delay the onset of autoimmune disease. Briefly, 8-week old NOD mice are treated with various doses (low: 0.65 mg/kg; medium: 6.5 mg/kg; high: 65 mg/kg) of cilostamide via intraperitoneal (i.p.) injection. Cilostamide is administered to the mice three times a week for five weeks.

**Q.** Which FOXP3 induction (naïve human CD4+ T cells; naïve CD4+ CD25− CD45RO− T cells, 14 days of expansion, vs non-treated controls) does the source give for `CN(C(=O)CCCOc1ccc2[nH]c(=O)ccc2c1)C1CCCCC1` [cilostamide] here?
**A.** increased FOXP3 induction

**Q.** What about the “ratio of FOXP3+ cells” value (naïve human CD4+ T cells; naïve CD4+ T cells, 14 days, vs rapamycin positive control) of the same compound?
**A.** comparable to that of the rapamycin-treated group

**Q.** What about the onset of diabetes (NOD mice) of the same compound?
**A.** delayed the onset of diabetes
